# US7645588B2, “Composition comprising a cell comprising a STIM1 protein and an agent that modulates intracellular calcium and methods of use” (CalciMedica, Inc., priority 2003, dated 2010)
# Read-outs that look alike come from different tables or passages of the source.
# B1: STIM1-1140 short hairpin siRNA: Short hairpin siRNA corresponding to STIM1-1140, expressed from pSilencer 2.1-U6 neo in stable Jurkat clone 4A5 (nucleic acid)
# chain 1: GATCCCGGCTCTGGATACAGTGCTCTTCAAGAGAGAGCACTGTATCCAGAGCCTTTTTTGGAAA
# chain 2: AGCTTTTCCAAAAAAGGCTCTGGATACAGTGCTCTCTCTTGAAGAGCACTGTATCCAGAGCCGG
# modifications: target site or template, no part of the molecule
# Key:
# STIM1-induced Ca2+ entry = conditions: HEK[STIM1] cells, absence of store depletion
# Protocol: (§1) For stable cell lines overexpressing STIM1, pcDNA[STIM1/542-5] was transfected into 3×10^5 HEK293 cells using Effectene (QIAGEN) transfection reagent following the manufacturer's protocol. Forty-eight hours after transfection, cells were harvested and replated under selection with 250 μg/ml Zeocin (Invitrogen). Colonies were selected, amplified, and evaluated for expression of STIM1 mRNA and protein by RT-PCR and western blot, respectively. Limiting dilution of the STIM1 overexpressing colonies generated individual clones.
# [1] = test system: store-operated calcium entry (SOCE); conditions: read-out: IC50 for inhibition of calcium entry; HEK[STIM1] cells; thapsigargin-mediated store depletion followed by readdition of external calcium
# Protocol: as §1
# [2] = test system: store-operated calcium entry (SOCE); conditions: read-out: IC50 for inhibition of calcium entry; HEK-Zeo control cells; thapsigargin-mediated store depletion followed by readdition of external calcium
# Jurkat T cells = experiment: IL-2 secretion from Jurkat T cells (ELISA); type: cell-based, human; conditions: Jurkat clone 4A5; 2.5 μg/ml PHA + 80 nM TPA for 20 hours
# Text: To test this prediction, a stable Jurkat T cell line expressing a short hairpin siRNA to suppress expression of STIM1 was generated as follows. Oligonucleotides corresponding to the STIM1-1140 siRNA (sense oligo, 5′-GATCCCGGCTCTGGATACAGTGCTCTTCAAGAGAGAGCACTGTATCCAGAGCCTTTTTTGGAAA-3′ SEQ ID NO: 99; antisense oligo, 5′-AGCTTTTCCAAAAAAGGCTCTGGATACAGTGCTCTCTCTTGAAGAGCACTGTATCCAGAGCCGG-3′ SEQ ID NO: 100) were annealed and ligated into pSilencer 2.1-U6 neo (Ambion) according to the manufacturer's protocol. Correct inserts were verified by DNA sequencing. For the control, a non-silencing scrambled siRNA (Negative Control oligo; Ambion) was generated as above. 2×10^6 Jurkat T cells were electroporated with 5 μg plasmid using a Bio-Rad Gene Pulser (140V, 30 msec, 4 pulses). Two days after transfection, cells were harvested and resuspended in media containing G-418 selection at a concentration of 1×10^4 cells/ml. 1 ml of cells/well was plated in 24-well plates. […]
# To measure IL-2 secretion from Jurkat T cells, cells were plated in a 96 well plate at a density of 1.5×10^5 cells/well. […] The media was collected and analyzed for IL-2 levels by ELISA (BioSource) according to the manufacturer's protocols. […]
Molecule,effect on calcium entry at lower concentrations (STIM1-induced Ca2+ entry; lower concentrations of 2-APB (biphasic effect)),IC50 (STIM1-induced Ca2+ entry; read-out: IC50 for inhibition of constitutive calcium entry) [µM],IC50 [1] [µM],IC50 [2] [µM],secretion of IL-2 upon stimulation (Jurkat T cells)
"NCCOB(c1ccccc1)c1ccccc1 [2-APB, 2-aminoethoxydiphenyl borate]",potentiated,10.8,10.5,11.8,–
B1,–,–,–,–,completely blocked
